Assay results from article PMC6125190 (Cell metabolism, 2018).

Biological target: T1, CPT-1a (carnitine palmitoyltransferase-1) (Mus musculus, UniProt P97742)
T1 sequence (P97742 2-773): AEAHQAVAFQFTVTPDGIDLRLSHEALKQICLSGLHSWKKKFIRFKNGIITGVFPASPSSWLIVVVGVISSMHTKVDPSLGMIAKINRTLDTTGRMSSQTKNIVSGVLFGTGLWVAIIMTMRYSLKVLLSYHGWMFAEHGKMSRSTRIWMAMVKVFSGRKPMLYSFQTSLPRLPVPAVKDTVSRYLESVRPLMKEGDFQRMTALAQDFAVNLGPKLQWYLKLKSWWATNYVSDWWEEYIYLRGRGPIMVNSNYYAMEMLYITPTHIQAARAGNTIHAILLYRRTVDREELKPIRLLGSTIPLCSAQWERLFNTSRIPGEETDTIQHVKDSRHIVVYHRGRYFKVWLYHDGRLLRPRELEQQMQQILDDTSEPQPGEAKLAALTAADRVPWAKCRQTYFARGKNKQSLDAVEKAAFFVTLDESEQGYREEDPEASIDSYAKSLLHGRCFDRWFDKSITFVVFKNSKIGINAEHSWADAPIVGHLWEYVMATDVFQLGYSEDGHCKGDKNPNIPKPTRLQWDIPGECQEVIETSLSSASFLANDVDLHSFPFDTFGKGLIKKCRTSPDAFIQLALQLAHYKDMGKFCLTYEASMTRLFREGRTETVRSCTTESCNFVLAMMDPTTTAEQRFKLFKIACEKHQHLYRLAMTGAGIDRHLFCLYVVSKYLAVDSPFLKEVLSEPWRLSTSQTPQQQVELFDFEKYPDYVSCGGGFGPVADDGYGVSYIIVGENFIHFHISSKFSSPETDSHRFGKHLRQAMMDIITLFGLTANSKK
Assay type: biochemical

palmitoyl-CoA-driven respiration in permeabilized mouse BMDMs pretreated with et: < 3 µM
Structure (SMILES): CCOC(=O)[C@@]1(CCCCCCOc2ccc(Cl)cc2)CO1 [Eto, etomoxir]
